Source: patent US9062018B2, “Crytalline form of 13-[(N-tert-butoxycarbonyl)-2′-O-hexanoyl-3-phenylisoserinyl]-10-deacetylbaccatin III” (Indena S.p.A, priority 2010, dated 2015)

How the values were obtained:
[1] = ICH stability studies (chemical stability of the solid form); assay type: physicochemical; details: mainly an impurity stemming from oxidation of the 10-position of the baccatin core
Source text: Thus it is desirable to find a crystalline form of compound (1) which is chemically and thermodynamically stable. A method for preparing such solid form of compound (1) continually and constantly is also a prerequisite for the development of a robust manufacturing process.

[2] = Stability data at 25±2° C. and 60±5% relative humidity of amorphous and Form A of compound (1); assay type: physicochemical; details: for HPLC assay (%) of compound (1) with reference to the anhydrous and solvent free basis / IR identification / Potential impurity-HPLC (area %): 10-dehydro compound (1): 25±2° C.; for HPLC assay (%) of compound (1) with reference to the anhydrous and solvent free basis / IR identification / Potential impurity-HPLC (area %): 10-dehydro compound (1) / Specific optical rotation (°) (c = 1 ethanol, at 20° C.): 60±5% relative humidity; for Specific optical rotation (°) (c = 1 ethanol, at 20° C.): storage 25±2° C.
Protocol: Stability data at 25±2° C. and 60±5% relative humidity of amorphous and Form A of compound (1). The packaging was the same for both solid forms (Amber glass vial+polyethylene bag+vacuum sealed PET/Aluminum/PE multilayer bag).

[3] = T = 0, against the reference FTIR figure of the form
[4] = T = 0, amber glass vial + polyethylene bag + vacuum sealed PET/Aluminum/PE multilayer bag

Row | SMILES | Chemical stability during ICH stability studies [1] | HPLC assay (%) of compound (1) with reference to the anhydrous and solvent free basis ([2]; 3 months) [%] | IR identification ([2]; 3 months) | Potential impurity-HPLC (area %): 10-dehydro compound (1) ([2]; 3 months) [% area %] | Specific optical rotation (°) (c = 1 ethanol, at 20° C.) ([2]; 3 months) | HPLC assay (%) of compound (1) with reference to the anhydrous and solvent free basis ([2]; 6 months) [%] | IR identification ([2]; 6 months) | Potential impurity-HPLC (area %): 10-dehydro compound (1) ([2]; 6 months) [% area %] | Specific optical rotation (°) (c = 1 ethanol, at 20° C.) ([2]; 6 months) | Potential impurity-HPLC (area %): 10-dehydro compound (1) ([2]; T = 0) [% area %] | IR identification [2, 3] | HPLC assay (%) of compound (1) with reference to the anhydrous and solvent free basis [2, 4] [%] | Specific optical rotation (°) (c = 1 ethanol, at 20° C.) ([2]; T = 0) | Oxidation of the 10-position of the baccatin core ([2]; solid form on storage)
1 | CCCCCC(=O)OC(C(=O)OC1CC2(O)C(OC(=O)c3ccccc3)C3C4(OC(C)=O)COC4CC(O)C3(C)C(=O)C(O)C(=C1C)C2(C)C)C(NC(=O)OC(C)(C)C)c1ccccc1 (centres unmarked) [Amourphous Form of compound (1), 13-[(N-tert-butoxycarbonyl)-2′-O-hexanoyl-3-phenylisoserinyl]-10-deacetylbaccatin III] | problems of chemical stability | 99.0 | Complies | 0.36 | −46.3 | 98.9 | Complie | 0.53 | −46.0 | 0.29 | Complies with | 99.7 | −46.0 | –
2 | CCCCCC(=O)OC(C(=O)OC1CC2(O)C(OC(=O)c3ccccc3)C3C4(OC(C)=O)COC4CC(O)C3(C)C(=O)C(O)C(=C1C)C2(C)C)C(NC(=O)OC(C)(C)C)c1ccccc1 (centres unmarked) [Form A of compound (1), 13-[(N-tert-butoxycarbonyl)-2′-O-hexanoyl-3-phenylisoserinyl]-10-deacetylbaccatin III] | – | 99.0 | Complies | 0.29 | −46.3 | 99.1 | Complies | 0.29 | −46.3 | 0.29 | Complies with | 99.0 | −46.2 | prevented
